The target of this experiment is T1, HIV integrase (Human immunodeficiency virus type 1 group M subtype B, UniProt P12497, F1332H).
T1 construct: HIV integrase full length gene; made in house; host or cells: Escherichia coli BL21(DE3)
The experiment is described as follows: Determination of enzyme (HIV integrase) inhibitory activity (strand transfer, microtiter plate, absorbance at 450 nm). The class given is biochemical, HIV (Human Immunodeficiency Virus (type 1)). As to conditions: recombinant HIV integrase (F185H) expressed in E. coli; donor DNA on streptavidin plate, digoxigenin target DNA; 37° C. Here is the method:
The following explains evaluation methods of the HIV integrase inhibitory activity of the compound of the present invention.
(i) Construction of Recombinant Integrase Gene Expression System
(ii) Production and Purification of Integrase Protein
Escherichia coli recombinant BL21(DE3) transformed with plasmid pET21a-IN-F185H obtained in (i) was shake cultured at 30° C. in a liquid medium containing ampicillin. When the culture reached the logarithmic growth phase, isopropyl-β-D-thiogalactopyranoside was added to promote expression of integrase gene. The culture was continued for 3 hrs to promote accumulation of the integrase protein. The recombinant E. coli was collected in pellets by centrifugal separation and preserved at −80° C.
The E. coli was suspended in Lysis buffer (20 mM HEPES (pH 7.5), 5 mM DTT, 10 mM CHAPS, 10% glycerol) containing 1M sodium chloride and subjected to repeat pressurization and depressurization for rupture, and centrifugal separation at 4° C., 40,000×g, 60 min to recover a water-soluble fraction (supernatant). This was diluted 10-fold with Lysis buffer free of sodium chloride, mixed with SP-Sepharose (Pharmacia Corporation) and stirred at 4° C. for 60 min to allow adsorption of integrase protein to the resin. The resin was washed with Lysis buffer containing 100 mM sodium chloride and the integrase protein was eluted with Lysis buffer containing 1M sodium chloride.
The eluted integrase protein solution was applied to a Superdex 75 (Pharmacia Corporation) column for gel filtration. The protein was eluted with Lysis buffer containing 1M sodium chloride.
The obtained fractions of the integrate protein were collected and preserved at −80° C.
(iii) Preparation of DNA Solution
The following DNA synthesized by Greiner was dissolved in TE buffer (10 mM Tris-hydrochloric acid (pH 8.0), 1 mM EDTA) and mixed with donor DNA, target DNA, each complementary strand (+ and − strands) to 1 μM. The mixture was heated at 95° C. for 5 min, 80° C. for 10 min, 70° C. for 10 min, 60° C. for 10 min, 50° C. for 10 min and 40° C. for 10 min and preserved at 25° C. to give a double stranded DNA, which was used for the test. Donor DNA (− strand having biotin attached to the 5′ terminal)
(iv) Determination of Enzyme (HIV Integrase) Inhibitory activity
The donor DNA was diluted with TE buffer to 10 nM, of which 50 μl was added to each well of streptavidin-coated microtiter plate (Roche) and allowed to adsorb at 37° C. for 60 min. The DNA was washed with phosphate buffer (Dulbecco PBS, Sanko Junyaku Co., Ltd.) containing 0.1% Tween 20 and phosphate buffer. Then, a reaction mixture (70 μl) having the following composition, a test substance (10 μl) diluted with the reaction mixture and […] integrase protein (10 μl) were added to each well and reacted at 37° C. for 60 min.
Then, 50 nM target DNA (1.0 μl) was added, reacted at 37° C. for 10 min and washed with phosphate buffer containing 0.1% Tween 20 to stop the reaction.
Then, 100 mU/ml peroxidase labeled anti-digoxigenin antibody solution (Roche, 100 μl) was added, and the mixture was reacted at 37° C. for 60 min, followed by washing with phosphate buffer containing 0.1% Tween 20.
A peroxidase color solution (Bio Rad, 100 μl) was added and allowed to react at room temperature for 4 min. The color reaction was stopped by adding 1N sulfuric acid (100 μl). The absorbance at 450 nm was measured.
The HIV integrase inhibitory activity (IC50) of the compound of the present invention was calculated from the inhibition rate according to the following formula. […] Evaluation of Antiviral Activity

The structures appear in SMILES notation.

As usually defined, the IC50 is the concentration that gives 50% inhibition.

Take `O=C(O)c1cn(CCO)c2ccc(Cc3ccc(F)c(Cl)c3F)cc2c1=O` [Example 3-17, 6-(3-Chloro-2,4-difluorobenzyl)-1-(2-hydroxyethyl)-4-oxo-1,4-dihydroquinoline-3-carboxylic acid]: the 50% inhibitory concentration (IC50) was determined as 13 nM.
For the compound `CN(C)CCn1cc(C(=O)O)c(=O)c2cc(Cc3cccc(Cl)c3Cl)ccc21` [Example 1-24, 6-(2,3-Dichlorobenzyl)-1-(2-dimethylaminoethyl)-4-oxo-1,4-dihydroquinoline-3-carboxylic acid], the IC50 is 290 nM.
For `O=C(O)c1cn(CCn2ccnc2)c2ccc(Cc3cccc(Cl)c3Cl)cc2c1=O` [Example 1-4, 6-(2,3-Dichlorobenzyl)-1-(2-imidazol-1-ylethyl)-4-oxo-1,4-dihydroquinoline-3-carboxylic acid], the IC50 came to 240 nM.
As for `CC(O)Cn1cc(C(=O)O)c(=O)c2cc(Cc3cccc(Cl)c3Cl)ccc21` (stereo not drawn) [Example 1-30, 6-(2,3-Dichlorobenzyl)-1-(2-hydroxypropyl)-4-oxo-1,4-dihydroquinoline-3-carboxylic acid], the figure is 140 nM.
For `CC(C)n1cc(C(=O)O)c(=O)c2cc(Cc3cccc(Cl)c3Cl)ccc21` [Example 1-8, 6-(2,3-Dichlorobenzyl)-1-isopropyl-4-oxo-1,4-dihydroquinoline-3-carboxylic acid], the IC50 came to 46 nM.
To `O=C(O)c1cn(CCO)c2ccc(Cc3c(F)ccc(F)c3Cl)cc2c1=O` [Example 1-73, 6-(2-Chloro-3,6-difluorobenzyl)-1-(2-hydroxyethyl)-4-oxo-1,4-dihydroquinoline-3-carboxylic acid] belongs 31 nM.
To `O=C(O)c1cn(CCc2ccccc2)c2ccc(Cc3cccc(Cl)c3Cl)cc2c1=O` [Example 1-16, 6-(2,3-Dichlorobenzyl)-4-oxo-1-phenethyl-1,4-dihydroquinoline-3-carboxylic acid] belongs 32 nM.
As for `O=C(O)c1cn(CCO)c2cc(C(F)(F)F)c(Cc3cccc(Cl)c3Cl)cc2c1=O` [Example 3-22, 6-(2,3-Dichlorobenzyl)-1-(2-hydroxyethyl)-4-oxo-7-trifluoromethyl-1,4-dihydroquinoline-3-carboxylic acid], the figure is 790 nM; as for `CCn1cc(C(=O)O)c(=O)c2cc(Cc3cccc(Cl)c3Cl)ccc21` [Example 1-37, 6-(2,3-Dichlorobenzyl)-1-ethyl-4-oxo-1,4-dihydroquinoline-3-carboxylic acid], 110 nM; as for `O=C(O)c1cn(CC2CCCC2)c2ccc(Cc3cccc(Cl)c3Cl)cc2c1=O` [Example 1-40, 1-Cyclopentylmethyl-6-(2,3-dichlorobenzyl)-4-oxo-1,4-dihydroquinoline-3-carboxylic acid], 110 nM.
As for `Cc1c(Cl)cccc1Cc1ccc2c(c1)c(=O)c(C(=O)O)cn2CCO` [Example 3-2, 6-(3-Chloro-2-methylbenzyl)-1-(2-hydroxyethyl)-4-oxo-1,4-dihydroquinoline-3-carboxylic acid], the IC50 came out at 200 nM.
To `CCCCn1cc(C(=O)O)c(=O)c2cc(Cc3cccc(Cl)c3Cl)ccc21` [Example 1-39, 1-Butyl-6-(2,3-Dichlorobenzyl)-4-oxo-1,4-dihydroquinoline-3-carboxylic acid] belongs 180 nM; to `CC(=O)Nn1cc(C(=O)O)c(=O)c2cc(Cc3cccc(Cl)c3Cl)ccc21` [Example 2-3, 1-Acetylamino-6-(2,3-dichlorobenzyl)-4-oxo-1,4-dihydroquinoline-3-carboxylic acid], 110 nM; to `CCCOc1cc(Cc2cccc(Cl)c2F)cc2c(=O)c(C(=O)O)cn(CCO)c12` [Example 3-58, 6-(3-Chloro-2-fluorobenzyl)-1-(2-hydroxyethyl)-4-oxo-8-propyloxy-1,4-dihydroquinoline-3-carboxylic acid], 8 nM.
Consider `CC(C)(C)NS(=O)(=O)Cn1cc(C(=O)O)c(=O)c2cc(Cc3cccc(Cl)c3Cl)ccc21` [Example 1-70, 1-tert-Butylsulfamoylmethyl-6-(2,3-dichlorobenzyl)-4-oxo-1,4-dihydroquinoline-3-carboxylic acid], for which the IC50 was 82 nM.
As for `O=C(O)Cn1cc(C(=O)O)c(=O)c2cc(Cc3cccc(Cl)c3Cl)ccc21` [Example 1-28, 1-Carboxymethyl-6-(2,3-dichlorobenzyl)-4-oxo-1,4-dihydroquinoline-3-carboxylic acid], the figure is 59 nM; as for `Cc1ncsc1CCn1cc(C(=O)O)c(=O)c2cc(Cc3cccc(Cl)c3Cl)ccc21` [Example 1-29, 6-(2,3-Dichlorobenzyl)-1-[2-(4-methylthiazol-5-yl)ethyl]-4-oxo-1,4-dihydroquinoline-3-carboxylic acid], 240 nM; as for `CCC[C@@H](CO)n1cc(C(=O)O)c(=O)c2cc(Cc3cccc(Cl)c3F)c(OC)cc21` [Example 4-38, (S)-6-(3-Chloro-2-fluorobenzyl)-1-[1-(hydroxymethyl)butyl]-7-methoxy-4-oxo-1,4-dihydroquinoline-3-carboxylic acid], 3.3 nM.
To `COc1cc(Cc2cccc(Cl)c2F)cc2c(=O)c(C(=O)O)cn([C@H](CO)C(C)(C)C)c12` [Example 4-34, (S)-6-(3-Chloro-2-fluorobenzyl)-1-[2,2-dimethyl-1-(hydroxymethyl)propyl]-8-methoxy-4-oxo-1,4-dihydroquinoline-3-carboxylic acid] belongs 3.9 nM.
Regarding `O=C(O)c1cn(-c2ccccc2)c2ccc(Cc3cccc(Cl)c3Cl)cc2c1=O` [Example 3-9, 6-(2,3-Dichlorobenzyl)-4-oxo-1-phenyl-1,4-dihydroquinoline-3-carboxylic acid], the IC50 was determined as 84 nM.
For `C[C@@H](CO)n1cc(C(=O)O)c(=O)c2cc(Cc3cccc(Cl)c3F)cc(N(C)C)c21` [Example 3-80, (S)-6-(3-Chloro-2-fluorobenzyl)-8-dimethylamino-1-(2-hydroxy-1-methylethyl)-4-oxo-1,4-dihydroquinoline-3-carboxylic acid], the 50% inhibitory concentration (IC50) turned out to be 8.8 nM.
In the case of `COc1cc(Cc2cccc(Cl)c2F)cc2c(=O)c(C(=O)O)cn([C@H](CO)C(C)C)c12` [Example 4-46, (S)-6-(3-Chloro-2-fluorobenzyl)-1-(1-hydroxymethyl-2-methylpropyl)-8-methoxy-4-oxo-1,4-dihydroquinoline-3-carboxylic acid], the half-inhibitory concentration (IC50) stood at 5 nM.
To `CCC[C@@H](CO)n1cc(C(=O)O)c(=O)c2cc(Cc3cccc(Cl)c3F)c(OCC)cc21` [Example 4-36, (S)-6-(3-Chloro-2-fluorobenzyl)-7-ethoxy-1-[1-(hydroxymethyl)butyl]-4-oxo-1,4-dihydroquinoline-3-carboxylic acid] belongs 3.7 nM.
To `O=C(O)c1cn(CCO)c2ccc(Cc3cccc(Cl)c3Cl)c(F)c2c1=O` [Example 4-12, 6-(2,3-Dichlorobenzyl)-5-fluoro-1-(2-hydroxyethyl)-4-oxo-1,4-dihydroquinoline-3-carboxylic acid] belongs 65 nM.
On to `CC[C@@H](CO)n1cc(C(=O)O)c(=O)c2cc(Cc3cccc(Cl)c3F)cc(OC(C)C)c21` [Example 4-17, (S)-6-(3-Chloro-2-fluorobenzyl)-1-[1-(hydroxymethyl)propyl]-8-isopropyloxy-4-oxo-1,4-dihydroquinoline-3-carboxylic acid], for which the IC50 came out at 3.1 nM.
To `Cc1cc2c(cc1Cc1cccc(Cl)c1Cl)c(=O)c(C(=O)O)cn2CCO` [Example 4-15, 6-(2,3-Dichlorobenzyl)-7-methyl-1-(2-hydroxyethyl)-4-oxo-1,4-dihydroquinoline-3-carboxylic acid] belongs 31 nM; to `C[C@H](CO)n1cc(C(=O)O)c(=O)c2cc(Cc3cccc(Cl)c3F)ccc21` [Example 3-24, (R)-6-(3-Chloro-2-fluorobenzyl)-1-(2-hydroxy-1-methylethyl)-4-oxo-1,4-dihydroquinoline-3-carboxylic acid], 39 nM.

The values above are taken from patent US8232401B2 (Japan Tobacco Inc., priority 2002, dated 2012).
